Measurements from patent US12522597B2, “Methods and compositions for modulating splicing” (Skyhawk Therapeutics, Inc., priority 2019, dated 2026).

Experiments:
MDR1 = assay: MDCK-MDR1 permeability assay (BBB penetration potential); assay type: in vitro ADME; conditions: dog; for efflux ratio at 120 min, 5 μM: MDCK-MDR1, pH 7.4, MDCK-MDR1: Efflux; for Papp A→B at 120 min, 5 μM: MDCK-MDR1, pH 7.4, MDCK-MDR1: Papp A-B; for Papp B→A at 120 min, 5 μM: MDCK-MDR1, pH 7.4, MDCK-MDR1: Papp B-A
Procedure: (§1) Each determination is performed in duplicate. […] Analytical conditions are outlined below.

[1] = test system: MDR1-MDCK cell monolayers; assay: as above; assay type: in vitro ADME; conditions: dog, MDCK-MDR1, 120 min, 5 μM, pH 7.4
Procedure: as §1

mHTT protein = mHTT protein assay (2B7-MW1, Mesoscale Discovery); assay type: cell-based, human; conditions: GM04724 (CAG 70/20) Huntington's disease patient lymphoblast cells, 48 hours, 2B7-MW1 MSD; read-out: HTT Potency - Protein EC50 mHTT (average)
Procedure: Compounds are tested on GM04724 (CAG 70/20) Huntington's disease patient lymphoblast cells at doses ranging from 10 μM to 0.6 nM. 4,500 cells/well are seeded in 384 well plates. One plate replica is carried out for parallel viability testing by CellTiter Glo (CTG). Compounds are incubated for 48 hours, mHTT protein levels are assessed by the 2B7-MW1 assay via Mesoscale Discovery (MSD) as previously reported (Macdonald et al., 2014). The antibody pair is comprised of previously characterized monoclonals (2B7 and MW1) interrogating two regions for HTT conformation and biological properties: the N17 domain and the polyQ domain (Baldo et al., 2012; Ko et., 2001). 2B7-MW1 is dependent on subject/animal specific levels of HTT at the time of treatment. 2B7-MW1 is dependent on polyQ expansion (e.g., the higher the expansion the higher the signal) and on mHTT size (e.g., a similar polyQ will give higher signal with smaller HTT size). The viability readout is carried out by CTG according to the manufacturer's instructions.

Compound | efflux ratio at 120 min, 5 μM (MDR1) | Papp A→B at 120 min, 5 μM (MDR1) | Papp B→A at 120 min, 5 μM (MDR1) | MDCK-MDR1: % Recov A-B [1] | MDCK-MDR1: % Recov B-A [1] | EC50 (mHTT protein) | MDCK-MDR1: Efflux [1] | MDCK-MDR1: Papp A-B [1] | MDCK-MDR1: Papp B-A [1]
Cc1ncn(-c2ccc(-c3ccc(O[C@H]4C[C@@H]5CCC[C@@H](N5)[C@H]4F)nn3)c(O)c2)n1 (single isomer, unassigned) [70-ENT2] | 5 | 7.47 ×10⁻⁶ cm/s | 40.1 ×10⁻⁶ cm/s | 94% | 105% | 101 to 500 nM |  |  | 
Cc1ncc(-c2ccc(-c3ccc(O[C@H]4C[C@@H]5CCC[C@@H](N5)[C@H]4F)nn3)c(O)c2)o1 (single isomer, unassigned) [93-ENT2] | 4 | 9.43 ×10⁻⁶ cm/s | 41.5 ×10⁻⁶ cm/s | 67% | 88% | 16 to 50 nM |  |  | 
Oc1cc(-c2nnco2)c(F)cc1-c1ccc(O[C@@H]2C[C@H]3CC[C@H](N3)[C@@H]2F)nn1 (single isomer, unassigned) [142-ENT2] | 6 | 9.4 ×10⁻⁶ cm/s | 54.5 ×10⁻⁶ cm/s | 101% | 121% | 51 to 100 nM |  |  | 
Oc1cc(-c2cn[nH]c2)ccc1-c1ccc(O[C@@H]2C[C@H]3CCC[C@H](N3)[C@H]2F)nn1 (single isomer, unassigned) [41-ENT2] | 8 | 4.96 ×10⁻⁶ cm/s | 40.9 ×10⁻⁶ cm/s | 66% | 74% | 16 to 50 nM |  |  | 
Cc1cc(-c2ccc(-c3ccc(O[C@@H]4C[C@H]5CCC[C@H](N5)[C@@H]4F)nn3)c(O)c2)cs1 (single isomer, unassigned) [101-ENT1] | 1 | 0.86 ×10⁻⁶ cm/s | 0.76 ×10⁻⁶ cm/s | 25% | 70% | 101 to 500 nM |  |  | 
C[C@@]12CC[C@@](C)(N1)[C@@H](F)[C@@H](Oc1ccc(-c3ccc(C#N)cc3O)nn1)C2 (single isomer, unassigned) [152-ENT2] | 5 | 10 ×10⁻⁶ cm/s | 53 ×10⁻⁶ cm/s | 92% | 100% | 501 to 10000 nM |  |  | 
Cn1cnc(-c2ccc(-c3ccc(O[C@H]4C[C@]5(C)CCC[C@@](C)(N5)[C@H]4F)nn3)c(O)c2)cc1=O (single isomer, unassigned) [139-ENT2] | 15 | 1.97 ×10⁻⁶ cm/s | 28.7 ×10⁻⁶ cm/s | 88% | 87% | 0.01 to 15 nM |  |  | 
N#Cc1ccc(-c2ccc(O[C@H]3C[C@@H]4CC[C@@H](N4)[C@H]3F)nn2)c(O)c1 (single isomer, unassigned) [111-ENT2] | 4 | 14.4 ×10⁻⁶ cm/s | 58.7 ×10⁻⁶ cm/s | 92% | 96% | 501 to 10000 nM |  |  | 
Cn1ccc(=O)c2cc(O)c(-c3ccc(O[C@H]4C[C@]5(C)CCC[C@@](C)(N5)[C@H]4F)nn3)cc21 (single isomer, unassigned) [132-ENT1] | 142 | 0.1 ×10⁻⁶ cm/s | 14.7 ×10⁻⁶ cm/s | 90% | 95% | 101 to 500 nM |  |  | 
Cc1cc(-c2ccc(-c3ccc(O[C@H]4C[C@@H]5CCC[C@@H](N5)[C@H]4F)nn3)c(O)c2)co1 (single isomer, unassigned) [98-ENT2] | 3 | 1.07 ×10⁻⁶ cm/s | 3.23 ×10⁻⁶ cm/s | 9% | 45% | 101 to 500 nM |  |  | 
Oc1cc(-c2ccc3cncn3c2)ccc1-c1ccc(O[C@@H]2C[C@H]3CCC[C@H](N3)[C@@H]2F)nn1 (single isomer, unassigned) [85-ENT1] | 6 | 2.12 ×10⁻⁶ cm/s | 12.1 ×10⁻⁶ cm/s | 33% | 66% | 101 to 500 nM |  |  | 
Cc1cc(-c2ccc(-c3ccc(O[C@@H]4C[C@H]5CCC[C@H](N5)[C@@H]4F)nn3)c(O)c2)cnn1 (single isomer, unassigned) [90-ENT1] | 33 | 1.82 ×10⁻⁶ cm/s | 60.5 ×10⁻⁶ cm/s | 103% | 99% | 101 to 500 nM |  |  | 
Cc1nnc(-c2ccc(-c3ccc(O[C@@H]4C[C@H]5CCC[C@H](N5)[C@@H]4F)nn3)c(O)c2)o1 (single isomer, unassigned) [94-ENT1] | 7 | 6.2 ×10⁻⁶ cm/s | 41.2 ×10⁻⁶ cm/s | 104% | 70% | 101 to 500 nM |  |  | 
Cc1cncc(-c2ccc(-c3ccc(O[C@H]4C[C@@H]5CCC[C@@H](N5)[C@H]4F)nn3)c(O)c2)n1 (single isomer, unassigned) [102-ENT2] | 6 | 7.93 ×10⁻⁶ cm/s | 48.4 ×10⁻⁶ cm/s | 86% | 89% | 101 to 500 nM |  |  | 
Oc1cc(-c2ccccn2)ccc1-c1ccc(O[C@@H]2C[C@H]3CCC[C@H](N3)[C@@H]2F)nn1 (single isomer, unassigned) [77-ENT1] | 4 | 5.64 ×10⁻⁶ cm/s | 22.7 ×10⁻⁶ cm/s | 52% | 70% | 101 to 500 nM |  |  | 
Oc1cc(-c2ccc3cncn3c2)ccc1-c1ccc(O[C@H]2C[C@@H]3CCC[C@@H](N3)[C@H]2F)nn1 (single isomer, unassigned) [85-ENT2] | 7 | 2.26 ×10⁻⁶ cm/s | 15.3 ×10⁻⁶ cm/s | 33% | 61% | 101 to 500 nM |  |  | 
Oc1cc(-n2ccnc2)ccc1-c1ccc(O[C@@H]2C[C@H]3CC[C@H](N3)[C@@H]2F)nn1 (single isomer, unassigned) [36-ENT1] | 5 | 5.28 ×10⁻⁶ cm/s | 26 ×10⁻⁶ cm/s | 74% | 83% | 51 to 100 nM |  |  | 
Cc1nc(-c2ccc(-c3ccc(O[C@H]4C[C@@H]5CCC[C@@H](N5)[C@H]4F)nn3)c(O)c2)co1 (single isomer, unassigned) [92-ENT2] | 9 | 6.04 ×10⁻⁶ cm/s | 54.6 ×10⁻⁶ cm/s | 72% | 89% | 101 to 500 nM |  |  | 
Oc1cc(-c2cc[nH]n2)ccc1-c1ccc(O[C@H]2C[C@@H]3CCC[C@@H](N3)[C@H]2F)nn1 (single isomer, unassigned) [66-ENT2] | 9 | 1.18 ×10⁻⁶ cm/s | 11.2 ×10⁻⁶ cm/s | 79% | 78% | 51 to 100 nM |  |  | 
Cc1nocc1-c1ccc(-c2ccc(O[C@H]3C[C@@H]4CCC[C@@H](N4)[C@H]3F)nn2)c(O)c1 (single isomer, unassigned) [72-ENT1] |  |  |  | 74% | 93% | 101 to 500 nM | 9 | 5.74 10^−6, cm/s | 51 10^−6, cm/s
